Results published in US8003648B2, “Heterocyclic GPR40 modulators” (Amgen Inc., priority 2006, dated 2011).

Biological target: T1, human GPR40 (Homo sapiens, UniProt O14842)
T1 construct: host or cells: CHO cells
Assay: Cell-based aequorin assay using human GPR40
Conditions: activation of human GPR40; CHO cells stably transfected with GPR40 and Aequorin; 0.01% HSA; aequorin luminescence
Experimental: Cell-based aequorin assays were employed to characterize the modulatory activity of compounds on the GPR40 signaling pathway. In an exemplary assay, CHO cells were stably transfected with both GPR40 and Aequorin (Euroscreen). Cells were detached from the tissue culture dish with 2 mL of trypsin (0.25% (w/v)). Trypsinization was halted with 28 mL of Hanks Buffered Salt Solution containing 20 mM Hepes (H/HBSS) and 0.01% fatty acid-free human serum albumin (HSA). Coelantrazine is added to 1 ug/mL, and the cells were incubated for 2 hours at room temperature. Compounds were dissolved in DMSO for preparation of 10 mM stock solutions. Compounds were diluted in H/HBSS containing 0.01% HSA. Serial dilutions of the test compounds were prepared to determine dose response.
Aequorin luminescence measurements were made using an EG&G Berthold 96-well luminometer, and the response was measured over a 20 second interval after cells and compounds were mixed. The maximum relative light units was plotted to determine dose response. The EC50 (effective concentration to reach 50% maximal response) was determined from the dose response plot.
Table 1 presents representative data (EC50 values) obtained for exemplary compounds of the invention for the activation of human GPR40. […]

T1 sequence (O14842 whole entry): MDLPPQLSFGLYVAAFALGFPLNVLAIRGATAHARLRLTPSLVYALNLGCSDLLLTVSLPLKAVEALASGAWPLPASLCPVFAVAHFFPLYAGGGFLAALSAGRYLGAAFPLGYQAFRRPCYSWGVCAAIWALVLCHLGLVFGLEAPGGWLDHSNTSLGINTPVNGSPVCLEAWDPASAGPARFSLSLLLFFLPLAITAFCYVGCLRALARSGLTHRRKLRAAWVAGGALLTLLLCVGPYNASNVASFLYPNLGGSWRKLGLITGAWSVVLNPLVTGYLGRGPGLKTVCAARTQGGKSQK

| EC50 [nM] | Structure (SMILES) |
| --- | --- |
| 10 to 100 | O=C(O)C[C@@H](c1ccc(OCc2cccc(-c3ccc(C(F)(F)F)cc3)c2)cc1)c1ccon1 [Example 2, (S)-3-(4-(3-(4-(Trifluoromethyl)phenyl)benzyloxy)phenyl)-3-(isoxazol-3-yl)propanoic acid] |
| 1000 to 10000 | O=C(O)C[C@@H](c1ccc(OCc2nc(-c3c(Cl)cccc3Cl)no2)cc1)c1ccon1 [Example 71] |
| 10 to 100 | Cc1ccc(-c2ccc(COc3ccc([C@H](CC(=O)O)c4ccon4)cc3)s2)cc1 [Example 13, (S)-3-(Isoxazol-3-yl)-3-(4-((5-p-tolylthiophen-2-yl)methoxy)phenyl)propanoic acid] |
| 100 to 1000 | O=C(O)C[C@@H](c1ccc(OCCCOc2ccc(C(F)(F)F)cc2)cc1)c1ccon1 [Example 48] |
| 1000 to 10000 | CS(=O)(=O)c1cc(COc2ccc([C@H](CC(=O)O)c3ccon3)cc2)ccc1OC(F)(F)F [Example 19, (S)-3-(4-(3-(Methylsulfonyl)-4-(trifluoromethoxy)benzyloxy)-phenyl)-3-(isoxazol-3-yl)propanoic acid] |
| 100 to 1000 | Cc1ccc(COc2ccc([C@H](CC(=O)O)c3ccon3)cc2)cc1-c1ccc(CC(C)C)cc1 [Example 17, (S)-3-(4-(3-(4-Isobutyl)-phenyl-4-methylbenzyloxy)phenyl)-3-(isoxazol-3-yl)propanoic acid] |
| 10 to 100 | Cc1nc(-c2ccc(OC(C)C)c(Cl)c2)sc1COc1ccc([C@H](CC(=O)O)c2ccon2)cc1 [Example 81] |
| 10 to 100 | Cc1nc(-c2ccc(C(C)(C)C)cc2)sc1COc1ccc([C@H](CC(=O)O)c2ccon2)cc1 [Example 76] |
| 1000 to 10000 | O=C(O)C[C@H](c1ccc(OCc2cccc(-c3ccc(C(F)(F)F)cc3)c2)cc1)c1ccon1 [Example 3, (R)-3-(4-(3-(4-(Trifluoromethyl)phenyl)benzyloxy)phenyl)-3-(isoxazol-3-yl)propanoic acid] |
| 100 to 1000 | O=C(O)C[C@@H](c1ccc(OCc2nc(-c3ccc(OCc4ccc(Cl)cc4)cc3)no2)cc1)c1ccon1 [Example 12, (S)-3-(4-((3-(4-(4-Chlorobenzyloxy)phenyl)-1,2,4-oxadiazol-5-yl)methoxy)phenyl)-3-(isoxazol-3-yl)propanoic acid] |
| 100 to 1000 | O=C(O)C[C@@H](c1ccc(OCCOc2ccc(C(F)(F)F)cc2)cc1)c1ccon1 [Example 47, (S)-3-(Isoxazol-3-yl)-3-(4-(2-(4-(trifluoromethyl)phenoxy)ethoxy)phenyl)propanoic acid] |
| 10 to 100 | Cc1nc(-c2cccc(C(F)(F)F)c2)sc1COc1ccc([C@H](CC(=O)O)c2ccon2)cc1 [Example 72, (3S)-3-(Isoxazol-3-yl)-3-(4-((4-methyl-2-(3-(trifluoromethyl)phenyl)thiazol-5-yl)methoxy)phenyl)propanoic acid] |
| 10 to 100 | CCCCc1ccc(-c2nc(C)c(COc3ccc([C@H](CC(=O)O)C4=NOCC4)cc3)s2)cc1 [Example 14, (S)-3-(4-((2-(4-Butylphenyl)-4-methylthiazol-5-yl)methoxy)phenyl)-3-(4,5-dihydroisoxazol-3-yl)propanoic acid] |
| 10 to 100 | Cc1oc(-c2ccc(C(F)(F)F)cc2)cc1COc1ccc([C@H](CC(=O)O)c2ccon2)cc1 [Example 52, (S)-3-(Isoxazol-3-yl)-3-(4-((2-methyl-5-(4-(trifluoromethyl)phenyl)furan-3-yl)methoxy)phenyl)propanoic acid] |
| 10 to 100 | CC1(C)CCC=C1c1cc(COc2ccc([C@H](CC(=O)O)c3ccon3)cc2)ccc1OC(F)(F)F [Example 38, (S)-3-(4-(3-(5,5-Dimethylcyclopent-1-enyl)-4-(trifluoromethoxy)benzyloxy)phenyl)-3-(isoxazol-3-yl)propanoic acid] |
| 1000 to 10000 | COc1ccccc1-c1nc(COc2ccc([C@H](CC(=O)O)c3ccon3)cc2)no1 [Example 64] |
| 10 to 100 | Cc1cc(-c2ccc(C(F)(F)F)cc2)sc1COc1ccc([C@H](CC(=O)O)c2ccon2)cc1 [Example 62, (3S)-3-(3-Isoxazolyl)-3-(4-(((3-methyl-5-(4-(trifluoromethyl)phenyl)-2-thienyl)methyl)oxy)phenyl)propanoic acid] |

| EC50 [nM] | Structure (SMILES) |
| --- | --- |
| 100 to 1000 | Cc1nc(-c2ccc(C(F)(F)F)cc2)oc1COc1ccc([C@H](CC(=O)O)c2ccon2)cc1 [Example 51, (S)-3-(Isoxazol-3-yl)-3-(4-((4-methyl-2-(4-(trifluoromethyl)phenyl)oxazol-5-yl)methoxy)phenyl)propanoic acid] |
| 100 to 1000 | Cn1nc(-c2ccc(C(F)(F)F)cc2)cc1COc1ccc([C@H](CC(=O)O)c2ccon2)cc1 [Example 16, (S)-3-(Isoxazol-3-yl)-3-(4-((1-methyl-3-(4-(trifluoromethyl)phenyl)-1H-pyrazol-5-yl)methoxy)phenyl)propanoic acid] |
| 1000 to 10000 | CC(C)(C)C(=O)Nc1cccc(COc2ccc([C@H](CC(=O)O)c3ccon3)cc2)c1 [Example 30, (S)-3-(4-(3-Pivalamidobenzyloxy)phenyl)-3-(isoxazol-3-yl)propanoic acid] |
| 100 to 1000 | Cc1oc(-c2ccc(C(F)(F)F)cc2)nc1COc1ccc([C@H](CC(=O)O)c2ccon2)cc1 [Example 50, (S)-3-(Isoxazol-3-yl)-3-(4-((5-methyl-2-(4-(trifluoromethyl)phenyl)oxazol-4-yl)methoxy)phenyl)propanoic acid] |
| 100 to 1000 | CC(C)(C)c1ccc(-c2noc(COc3ccc([C@H](CC(=O)O)c4ccon4)cc3)n2)cc1 [Example 70] |
| 100 to 1000 | CC1(C)CCC(C)(C)c2cc(COc3ccc(C(CC(=O)O)C4=NOCC4)cc3)ccc21 (stereo not drawn) [Example 42, 3-(4,5-Dihydroisoxazol-3-yl)-3-(4-((5,5,8,8-tetramethyl-5,6,7,8-tetrahydronaphthalen-2-yl)methoxy)phenyl)propanoic acid] |
| 10 to 100 | Cc1nc(-c2ccc(CC(C)C)cc2)sc1COc1ccc([C@H](CC(=O)O)c2ccon2)cc1 [Example 78] |
| 1000 to 10000 | CCN(CC)Cc1ccc(-c2nc(C)c(COc3ccc([C@H](CC(=O)O)c4ccon4)cc3)s2)cc1 [Example 54, (S)-3-(4-((2-(4-((Diethylamino)methyl)phenyl)-4-methylthiazol-5-yl)methoxy)phenyl)-3-(isoxazol-3-yl)propanoic acid] |
| 10 to 100 | Cc1oc(-c2ccc(Cl)cc2)cc1COc1ccc([C@H](CC(=O)O)c2ccon2)cc1 [Example 53, (S)-3-(4-((5-(4-Chlorophenyl)-2-methylfuran-3-yl)methoxy)phenyl)-3-(isoxazol-3-yl)propanoic acid] |
| 10 to 100 | CC1(C)CCC(C)(C)c2cc(COc3ccc([C@H](CC(=O)O)c4ccon4)cc3)ccc21 [Example 40, (S)-3-(Isoxazol-3-yl)-3-(4-((5,5,8,8-tetramethyl-5,6,7,8-tetrahydronaphthalen-2-yl)methoxy)phenyl)propanoic acid] |
| 10 to 100 | CCCCc1ccc(-c2ccc(COc3ccc([C@H](CC(=O)O)c4ccon4)cc3)s2)cc1 [Example 60, (3S)-3-(4-(((5-(4-butylphenyl)-2-thienyl)methyl)oxy)phenyl)-3-(3-isoxazolyl)propanoic acid] |
| 10 to 100 | CC(C)c1ccc(COc2ccc([C@H](CC(=O)O)c3ccon3)cc2)cc1OC(F)(F)F [Example 37, (S)-3-(4-(4-Isopropyl-3-(trifluoromethoxy)benzyloxy)phenyl)-3-(isoxazol-3-yl)propanoic acid] |
| 100 to 1000 | CCCCc1ccc(-c2cc(COc3ccc([C@H](CC(=O)O)c4ccon4)cc3)ccc2C)cc1 [Example 18, (S)-3-(4-(3-(4-Butyl)-phenyl-4-methylbenzyloxy)phenyl)-3-(isoxazol-3-yl)propanoic acid] |
| 1000 to 10000 | O=C(O)C[C@@H](c1ccc(OCc2noc(-c3cccc(C(F)(F)F)c3)n2)cc1)c1ccon1 [Example 66] |
| 100 to 1000 | Cc1nc(-c2ccc(C(F)(F)F)cc2)sc1COc1ccc([C@@H](CC(=O)O)c2ccon2)cc1 [Example 6, (R)-3-(Isoxazol-3-yl)-3-(4-((4-methyl-2-(4-(trifluoromethyl)phenyl)thiazol-5-yl)methoxy)phenyl)propanoic acid] |
| 100 to 10000 | Cc1cc([C@@H](CC(=O)O)c2ccc(OCc3cccc(-c4ccc(C(F)(F)F)cc4)c3)cc2)no1 [Example 39, (S)-3-(4-(3-(4-(Trifluoromethyl)phenyl)benzyloxy)phenyl)-3-(5-methylisoxazol-3-yl)propanoic acid] |
| 10 to 100 | Cc1nc(-c2ccc(Cl)cc2)sc1COc1ccc([C@H](CC(=O)O)c2ccon2)cc1 [Example 57, (S)-3-(Isoxazol-3-yl)-3-(4-((4-methyl-2-(4-chlorophenyl)thiazol-5-yl)methoxy)phenyl)propanoic acid] |

| Structure (SMILES) | EC50 [nM] |
| --- | --- |
| CC(C)(C)OC(=O)N1CC=C(c2cccc(COc3ccc([C@H](CC(=O)O)c4ccon4)cc3)c2)CC1 [Example 34, (S)-3-(4-(3-(1-(Tert-butoxycarbonyl)-1,2,3,6-tetrahydropyridin-4-yl)benzyloxy)phenyl)-3-(isoxazol-3-yl)propanoic acid] | 1000 to 10000 |
| CCCCOc1ccc(-c2nc(C)c(COc3ccc([C@H](CC(=O)O)c4ccon4)cc3)s2)cc1F [Example 75, (3S)-3-(4-((2-(4-Butoxy-3-fluorophenyl)-4-methylthiazol-5-yl)methoxy)phenyl)-3-(isoxazol-3-yl)propanoic acid] | 10 to 100 |
